Measurements as given in patent publication US4770997A, “Thermostable bilirubin oxidase and production process thereof” (Toyo Jozo Co., Ltd., priority 1985, dated 1988).

Columns and labels:
[1] = system: Bacillus licheniformis B-0891 (FERM BP-952) bilirubin oxidase (Invention Sample); test: Km value of the thermostable bilirubin oxidase of this invention; type: biochemical; details: at pH 8.0; substrate bilirubin
Description: A reaction mixture (1.49 ml) of the above composition was placed in a small test tube. After heating it to 37° C., 0.01 ml of a 10 mM bilirubin solution was added to initiate the reaction. They were reacted at 37° C. for 10 minutes. After the reaction, 1.5 ml of 1% CPC (N-cetylpyridinium chloride) was added to terminate the reaction and the reaction mixture was subjected to the colorimetric analysis at 453 nm to determine its absorbance [S]. On the other hand, as a blank, a reaction mixture (1.44 ml) of the same type as the above-employed reaction mixture except for the exclusion of the enzyme solution was added with 0.01 ml of the bilirubin solution. The resultant mixture was incubated at 37° C. for 10 minutes precisely. Thereafter, 1.5 ml of 1% CPC and 0.05 ml of the bilirubin oxidase solution were added successively. The thus-prepared mixture was subjected to the colorimetric analysis at 453 nm to determine its absorbance [B]. The enzymatic activity is calculated in accordance with the following equation: [formula] wherein 1 unit (U) of the enzymatic activity is defined as the amount of enzyme which oxidizes 1 μmol of bilirubin per minute under the above-described conditions.

[2] = molecular target: T1, bilirubin oxidase originated from Myrothecium (Prior Art Sample No. 3) (Albifimbria verrucaria, UniProt Q12737); details: Prior Art Sample No. 3, originated from Myrothecium; substrate bilirubin; cited from earlier work
T1 sequence (Q12737 39-572): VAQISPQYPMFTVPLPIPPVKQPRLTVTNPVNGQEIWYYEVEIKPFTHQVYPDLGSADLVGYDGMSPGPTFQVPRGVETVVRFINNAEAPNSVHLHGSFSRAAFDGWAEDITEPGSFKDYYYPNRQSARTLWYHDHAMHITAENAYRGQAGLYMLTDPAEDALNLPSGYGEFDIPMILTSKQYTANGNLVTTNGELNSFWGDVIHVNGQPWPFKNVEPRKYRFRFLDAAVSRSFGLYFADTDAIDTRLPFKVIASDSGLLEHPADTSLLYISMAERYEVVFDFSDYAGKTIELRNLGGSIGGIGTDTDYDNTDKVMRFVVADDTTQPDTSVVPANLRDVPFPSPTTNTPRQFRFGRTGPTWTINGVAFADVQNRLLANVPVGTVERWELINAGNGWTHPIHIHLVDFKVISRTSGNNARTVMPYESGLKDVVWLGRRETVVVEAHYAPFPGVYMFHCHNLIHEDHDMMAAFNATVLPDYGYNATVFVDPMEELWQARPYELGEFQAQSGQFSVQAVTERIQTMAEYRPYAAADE

C=CC1=C(C)/C(=C/c2[nH]c(Cc3[nH]c(/C=C4\NC(=O)C(C)=C4C=C)c(C)c3CCC(=O)O)c(CCC(=O)O)c2C)NC1=O [Bilirubin]
Km [1]: 28.6 µM
Km [2]: 190 µM
